# Assay results taken from article PMC5285354, “Cationic Net Charge and Counter Ion Type as Antimicrobial Activity Determinant Factors of Short Lipopeptides” (Frontiers in Microbiology, 2017).
# Where two headings read alike, the source gives them in different places. Where a SMILES comes first, the peptide text is derived from it. The star is where a group is joined. Lauroyl = CCCCCCCCCCCC(=O)*
# Experiments:
# Type in all cases: cell-based
# [1] = test system: Candida albicans (ATCC 10231)
# [2] = test system: Pseudomonas aeruginosa (ATCC 9027); details: ATCC 9027, 24 h
# [3] = test system: Staphylococcus aureus (ATCC 25923); details: for MBC Staphylococcus aureus: ATCC 25923, 24 h
# Procedure, shortened: (§1)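 Broth microdilution per CLSI: Mueller-Hinton broth, 10^5 cfu/mL inoculum, 18 h at 37°C for bacteria; Sabouraud dextrose broth, 10^3 cfu/mL, 48 h at 25°C for fungi. MIC (μg/mL) is the lowest lipopeptide concentration inhibiting visible growth; MBC/MFC also determined. Triplicate on three days.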
# [4] = test system: Escherichia coli (ATCC 25922); details: for MBC Escherichia coli: ATCC 25922, 24 h
# Procedure, shortened: as §1
# [5] = test system: Proteus vulgaris (PCM 2668); details: for MIC Proteus vulgaris: 18 h; for MBC Proteus vulgaris: PCM 2668, TFA salt, subculture on Mueller-Hinton II Agar, 24 h 37°C, triplicate
# Procedure, shortened: as §1
# [6] = test system: Candida albicans (ATCC 10231); details: ATCC 10231, 48 h
# Procedure, shortened: as §1
# [7] = test system: Bacillus subtilis (ATCC 6633); details: for MIC Bacillus subtillis: ATCC 6633, 18 h; for MBC Bacillus subtillis: ATCC 6633, 24 h
# Procedure, shortened: as §1
# [8] = test system: Candida tropicalis (PCM 2681); details: PCM 2681, 48 h
# Procedure, shortened: as §1
# [9] = test system: Aspergillus brasiliensis (ATCC 16404); details: ATCC 16404, 48 h
# Procedure, shortened: as §1
# [10] = test system: Staphylococcus epidermidis (PCM 2118); details: for MIC Staphylococcus epidermidis: PCM 2118, 18 h; for MBC Staphylococcus epidermidis: PCM 2118, 24 h
# Procedure, shortened: as §1
# [11] = test system: Klebsiella pneumoniae (ATCC 700603); details: for MBC Klebsiella pneumoniae: ATCC 700603, 24 h
# Procedure, shortened: as §1
# [12] = test system: Pseudomonas aeruginosa (ATCC 9027); details: ATCC 9027, 18 h
# Procedure, shortened: as §1
# [13] = test system: Enterococcus faecalis (ATCC 29212); details: for MBC Enterococcus fecalis: ATCC 29212, 24 h
# Procedure, shortened: as §1
# [14] = test system: Proteus vulgaris (PCM 2668); details: 24 h
# [15] = test system: human red blood cells; details: 1 h
# Experimental: The hemolytic activity of the lipopeptides was determined by exposing human red blood cells (4% v/v) to tested compounds at graded concentrations. Red blood cells were obtained from a healthy donor. EDTA was used to prevent the blood clotting. The plasma was removed via centrifugation and the erythrocytes were washed three times with PBS. The red blood cells were suspended in PBS and incubated with different concentrations of lipopeptides at 37°C for 1 h and centrifuged for 5 min at 1000 × g. The supernatants were transferred to a sterile 96-well plate and hemoglobin release was measured with an Epoch microplate spectrophotometer (BioTek, USA) by recording the absorbance at 550 nm. A 0.1% Triton X-100 solution was used as the positive control (100% of hemolysis) and pure PBS as the negative (0% of hemolysis). Minimum hemolytic concentration (MHC) was taken as the lowest concentration which induced 10% of hemolysis.
"MIC Staphylococcus aureus ([3]; ATCC 25923, 18 h) [µg/mL]","MIC Escherichia coli ([4]; ATCC 25922, 18 h) [µg/mL]",MIC Candida albicans [6] [µg/mL],MIC Bacillus subtillis [7] [µg/mL],MIC Candida tropicalis [8] [µg/mL],MIC Aspergillus brasiliensis [9] [µg/mL],MIC Staphylococcus epidermidis [10] [µg/mL],"MIC Klebsiella pneumoniae ([11]; ATCC 700603, 18 h) [µg/mL]",MIC Pseudomonas aeruginosa [12] [µg/mL],"MIC Enterococcus fecalis ([13]; ATCC 29212, 18 h) [µg/mL]",Compound,MBC Pseudomonas aeruginosa [2] [µg/mL],MBC Staphylococcus aureus [3] [µg/mL],MBC Escherichia coli [4] [µg/mL],MFC Candida albicans [6] [µg/mL],MBC Bacillus subtillis [7] [µg/mL],MFC Candida tropicalis [8] [µg/mL],MFC Aspergillus brasiliensis [9] [µg/mL],MBC Staphylococcus epidermidis [10] [µg/mL],MBC Klebsiella pneumoniae [11] [µg/mL],MBC Enterococcus fecalis [13] [µg/mL],other results
8,8,128,4,128,128,4,16,8,8,CCCCCCCCCCCCCCCC(=O)N[C@@H](CCCCN)C(=O)N[C@@H](CCCCN)C(N)=O [C16-KK-NH2],8,8,8,128,4,128,128,4,16,8,"MFC Candida albicans, lipopeptides without TFA counter ion [1]: 256 µg/mL; MBC Staphylococcus aureus, lipopeptides without TFA counter ion ([3]; ATCC 25923, 18 h): 4 µg/mL; MIC Staphylococcus aureus, lipopeptides without TFA counter ion ([3]; ATCC 25923, 18 h): 4 µg/mL; MBC Escherichia coli, lipopeptides without TFA counter ion ([4]; ATCC 25922, 18 h): 4 µg/mL; MIC Escherichia coli, lipopeptides without TFA counter ion ([4]; ATCC 25922, 18 h): 4 µg/mL; MIC Proteus vulgaris [5]: >512 µg/mL; MIC Candida albicans, lipopeptides without TFA counter ion [6]: 256 µg/mL; MBC Klebsiella pneumoniae, lipopeptides without TFA counter ion ([11]; ATCC 700603, 18 h): 32 µg/mL; MIC Klebsiella pneumoniae, lipopeptides without TFA counter ion ([11]; ATCC 700603, 18 h): 16 µg/mL; MBC Enterococcus fecalis, lipopeptides without TFA counter ion ([13]; ATCC 29212, 18 h): 4 µg/mL; MIC Enterococcus fecalis, lipopeptides without TFA counter ion ([13]; ATCC 29212, 18 h): 4 µg/mL; MBC Proteus vulgaris [14]: >512 µg/mL"
256,256,512,128,512,256,128,256,256,256,CCCCCCCCCCCC(=O)N[C@@H](CCCCN)C(=O)NCC(N)=O [C12-KG-NH2] (Lauroyl-Lys-Gly-NH2),512,512,512,512,256,512,512,128,512,256,"Hemolysis HC10 (MHC), concentration of lipopeptide inducing 10% of hemolysis [15]: 1000 µg/mL; MBC Proteus vulgaris [5]: >2000 µg/mL"
256,256,256,128,256,256,128,256,128,256,CCCCCCCCCCCC(=O)N[C@@H](CCCCN)C(N)=O [C12-K-NH2],256,256,256,512,256,512,512,128,256,256,"Hemolysis HC10 (MHC), concentration of lipopeptide inducing 10% of hemolysis [15]: 1000 µg/mL; MIC Proteus vulgaris [5]: >512 µg/mL; MBC Proteus vulgaris [5]: >1000 µg/mL"
